Results on 26 compounds are retold here after patent US12528802B2, “Heterocyclic compound” (Takeda Pharmaceutical Company Limited, priority 2019, dated 2026).

The experiment has as its target T1, glucosylceramide synthase (Homo sapiens, UniProt Q16739).
T1 construct: made in house; host or cells: Expi293F cells (transient expression, pcDNA3.3-TOPO vector); microsome fraction used as enzyme source
T1 sequence (Q16739 1-394): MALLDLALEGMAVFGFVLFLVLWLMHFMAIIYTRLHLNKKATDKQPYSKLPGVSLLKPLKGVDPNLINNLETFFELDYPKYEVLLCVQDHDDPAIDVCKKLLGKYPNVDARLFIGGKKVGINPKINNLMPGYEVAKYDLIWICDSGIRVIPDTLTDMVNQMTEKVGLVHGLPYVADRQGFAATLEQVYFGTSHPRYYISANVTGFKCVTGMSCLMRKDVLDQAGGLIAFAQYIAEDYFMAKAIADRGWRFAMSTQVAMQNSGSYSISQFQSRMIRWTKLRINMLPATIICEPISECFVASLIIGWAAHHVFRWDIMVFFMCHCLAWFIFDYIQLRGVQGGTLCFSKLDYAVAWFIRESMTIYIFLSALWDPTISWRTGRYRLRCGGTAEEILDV
Put plainly: Glucosylceramide synthase (GCS) enzyme assay, microsome fraction, C8 glucosylceramide quantified by Rapidfire MS/MS. In kind it is biochemical. Conditions: test compound 10 μM; 1.7 μM UDP-glucose, 3 μM C8 ceramide; room temperature 60 min; read-out: GCS enzyme inhibitory rate at 10 μM (%) (% of control). The method in brief:
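Test compound, 10 μM final, was run against human GCS from transfected Expi293F microsome fractions, using substrate solution of 6 μM C8 ceramide (in DOPC liposomes) plus 3.4 μM UDP-glucose, pH 7.5 Tris buffer, 60 min, room temperature. Product C8 glucosylceramide measured by Rapidfire MS/MS against an internal standard, % inhibition referenced to no-enzyme and DMSO wells.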
In the case of `CC(C)(O)c1ccc(N2Cc3c(ccnc3-c3ccc(F)cc3OCC(F)F)C2=O)cc1` [Example 241, 4-[2-(2,2-difluoroethoxy)-4-fluorophenyl]-2-[4-(2-hydroxypropan-2-yl)phenyl]-2,3-dihydro-1H-pyrrolo[3,4-c]pyridin-1-one], the inhibition at 10 µM worked out at 98%.
For the compound `O=C1c2ccnc(-c3ccccc3OCC(F)(F)F)c2CN1c1ccc(C2(O)CCOCC2)cc1` [Example 242, 2-[4-(4-hydroxyoxan-4-yl)phenyl]-4-[2-(2,2,2-trifluoroethoxy)phenyl]-2,3-dihydro-1H-pyrrolo[3,4-c]pyridin-1-one], the inhibition at 10 µM came to 100%.
As for `N#CC1(c2ccc(N3Cc4c(ccnc4-c4ccc(F)cc4OCC(F)(F)F)C3=O)cc2)CC1` [Example 244, 1-(4-{4-[4-fluoro-2-(2,2,2-trifluoroethoxy)phenyl]-1-oxo-1,3-dihydro-2H-pyrrolo[3,4-c]pyridin-2-yl}phenyl)cyclopropane-1-carbonitrile], the inhibition at 10 µM was 89%.
In the case of `O=C1c2ccnc(-c3ccc(F)cc3OCC(F)(F)F)c2CN1c1ccc(C(O)(C(F)F)C(F)F)cc1` [Example 245, 4-[4-fluoro-2-(2,2,2-trifluoroethoxy)phenyl]-2-[4-(1,1,3,3-tetrafluoro-2-hydroxypropan-2-yl)phenyl]-2,3-dihydro-1H-pyrrolo[3,4-c]pyridin-1-one], the inhibition at 10 µM was 100%.
Consider `O=C1c2ccnc(-c3ccccc3OCC(F)(F)F)c2CN1c1ccc(C(O)(C(F)F)C(F)F)cc1` [Example 246, 2-[4-(1,1,3,3-tetrafluoro-2-hydroxypropan-2-yl)phenyl]-4-[2-(2,2,2-trifluoroethoxy)phenyl]-2,3-dihydro-1H-pyrrolo[3,4-c]pyridin-1-one], for which the inhibition at 10 µM was 100%.
For `O=C1c2ccnc(-c3ccccc3OCC(F)(F)F)c2CN1c1cnn(CC2(F)COC2)c1` [Example 247, 2-{1-[(3-fluorooxetan-3-yl)methyl]-1H-pyrazol-4-yl}-4-[2-(2,2,2-trifluoroethoxy)phenyl]-2,3-dihydro-1H-pyrrolo[3,4-c]pyridin-1-one], the inhibition at 10 µM turned out to be 97%.
As to `O=C1c2ccnc(-c3ccccc3OCC(F)(F)F)c2CN1c1cnn(CC2(F)CC2)c1` [Example 248, 2-{1-[(1-fluorocyclopropyl)methyl]-1H-pyrazol-4-yl}-4-[2-(2,2,2-trifluoroethoxy)phenyl]-2,3-dihydro-1H-pyrrolo[3,4-c]pyridin-1-one], the inhibition at 10 µM is 99%.
For the compound `O=C1c2ccnc(-c3ccccc3OCC(F)(F)F)c2CN1c1ccc(C2(O)COC2)cn1` [Example 252, 2-[5-(3-hydroxyoxetan-3-yl)pyridin-2-yl]-4-[2-(2,2,2-trifluoroethoxy)phenyl]-2,3-dihydro-1H-pyrrolo[3,4-c]pyridin-1-one], the inhibition at 10 µM came to 98%.
To `CC(C)(CO)c1ccc(N2Cc3c(ccnc3-c3ccc(F)cc3OCC(F)(F)F)C2=O)cc1` [Example 253, 4-[4-fluoro-2-(2,2,2-trifluoroethoxy)phenyl]-2-[4-(1-hydroxy-2-methylpropan-2-yl)phenyl]-2,3-dihydro-1H-pyrrolo[3,4-c]pyridin-1-one] belongs 98%.
To `CC(C)(O)COc1ccc(N2Cc3c(ccnc3-c3ccc(F)cc3OCC(F)(F)F)C2=O)cc1` [Example 254, 4-[4-fluoro-2-(2,2,2-trifluoroethoxy)phenyl]-2-[4-(2-hydroxy-2-methylpropoxy)phenyl]-2,3-dihydro-1H-pyrrolo[3,4-c]pyridin-1-one] belongs 99%.
For the compound `CC(C)(O)COc1ccc(N2Cc3c(ccnc3-c3ccc(F)cc3OCC(F)(F)F)C2=O)nc1` [Example 255, 4-[4-fluoro-2-(2,2,2-trifluoroethoxy)phenyl]-2-[5-(2-hydroxy-2-methylpropoxy)pyridin-2-yl]-2,3-dihydro-1H-pyrrolo[3,4-c]pyridin-1-one], the inhibition at 10 µM is 100%.
As to `O=C1c2ccnc(-c3ccc(F)cc3OCC(F)(F)F)c2CN1c1ccc(C2(O)CCOCC2)cn1` [Example 257, 4-[4-fluoro-2-(2,2,2-trifluoroethoxy)phenyl]-2-[5-(4-hydroxyoxan-4-yl)pyridin-2-yl]-2,3-dihydro-1H-pyrrolo[3,4-c]pyridin-1-one], the inhibition at 10 µM worked out at 99%.
Consider `CC(=O)N1CC(O)(c2ccc(N3Cc4c(ccnc4-c4ccccc4OCC(F)(F)F)C3=O)cc2)C1` [Example 258, 2-[4-(1-acetyl-3-hydroxyazetidin-3-yl)phenyl]-4-[2-(2,2,2-trifluoroethoxy)phenyl]-2,3-dihydro-1H-pyrrolo[3,4-c]pyridin-1-one], for which the inhibition at 10 µM was found to be 70%.
Consider `O=C1c2ccnc(-c3ccccc3OCC(F)(F)F)c2CN1c1ccc(C2(O)CNC2)cc1` [Example 259, 2-[4-(3-hydroxyazetidin-3-yl)phenyl]-4-[2-(2,2,2-trifluoroethoxy)phenyl]-2,3-dihydro-1H-pyrrolo[3,4-c]pyridin-1-one], for which the inhibition at 10 µM was found to be 85%.
On to `O=C1c2ccnc(-c3ccccc3OCC(F)(F)F)c2CN1c1ccc(C(O)(C(F)(F)F)C(F)(F)F)cc1` [Example 260, 2-[4-(1,1,1,3,3,3-hexafluoro-2-hydroxypropan-2-yl)phenyl]-4-[2-(2,2,2-trifluoroethoxy)phenyl]-2,3-dihydro-1H-pyrrolo[3,4-c]pyridin-1-one], for which the inhibition at 10 µM turned out to be 100%.
As to `O=C(C1CC1)N1CC(O)(c2ccc(N3Cc4c(ccnc4-c4ccccc4OCC(F)(F)F)C3=O)cc2)C1` [Example 261, 2-{4-[1-(cyclopropanecarbonyl)-3-hydroxyazetidin-3-yl]phenyl}-4-[2-(2,2,2-trifluoroethoxy)phenyl]-2,3-dihydro-1H-pyrrolo[3,4-c]pyridin-1-one], the inhibition at 10 µM worked out at 93%.
On to `CC(C)(O)c1ccc(N2Cc3c(ccnc3-c3ccccc3OCC(F)(F)F)C2=O)cc1F` [Example 262, 2-[3-fluoro-4-(2-hydroxypropan-2-yl)phenyl]-4-[2-(2,2,2-trifluoroethoxy)phenyl]-2,3-dihydro-1H-pyrrolo[3,4-c]pyridin-1-one], for which the inhibition at 10 µM is 100%.
To `O=C1c2ccnc(-c3ccccc3OCC(F)(F)F)c2CN1c1ccc(C2(O)CC2)cn1` [Example 265, 2-[5-(1-hydroxycyclopropyl)pyridin-2-yl]-4-[2-(2,2,2-trifluoroethoxy)phenyl]-2,3-dihydro-1H-pyrrolo[3,4-c]pyridin-1-one] belongs 100%; to `CC(C)(C)[Si](C)(C)OC1(c2ccc(N3Cc4c(ccnc4-c4ccccc4OCC(F)(F)F)C3=O)nc2)CC1` [Example 266, 2-[5-(1-{[tert-butyl(dimethyl)silyl]oxy}cyclopropyl)pyridin-2-yl]-4-[2-(2,2,2-trifluoroethoxy)phenyl]-2,3-dihydro-1H-pyrrolo[3,4-c]pyridin-1-one], 99%.
As for `O=C1c2ccnc(-c3ccc(F)cc3OCC(F)F)c2CN1c1ccc(C2(O)CCC2)cc1` [Example 267, 4-[2-(2,2-difluoroethoxy)-4-fluorophenyl]-2-[4-(1-hydroxycyclobutyl)phenyl]-2,3-dihydro-1H-pyrrolo[3,4-c]pyridin-1-one], the inhibition at 10 µM turned out to be 99%.
Take `CS(=O)(=O)c1ccc(N2Cc3c(ccnc3-c3ccccc3OCC(F)(F)F)C2=O)nc1` [Example 268, 2-[5-(methanesulfonyl)pyridin-2-yl]-4-[2-(2,2,2-trifluoroethoxy)phenyl]-2,3-dihydro-1H-pyrrolo[3,4-c]pyridin-1-one]: the inhibition at 10 µM is 91%.
As for `CC(C)(C#N)c1ccc(N2Cc3c(ccnc3-c3ccc(F)cc3OCC(F)(F)F)C2=O)cc1` [Example 269, 2-(4-{4-[4-fluoro-2-(2,2,2-trifluoroethoxy)phenyl]-1-oxo-1,3-dihydro-2H-pyrrolo[3,4-c]pyridin-2-yl}phenyl)-2-methylpropanenitrile], the inhibition at 10 µM was found to be 99%.
Turning to `O=C1c2ccnc(-c3ccc(F)cc3OCC(F)(F)F)c2CN1c1ccc(C(O)(C(F)(F)F)C(F)(F)F)cc1` [Example 270, 4-[4-fluoro-2-(2,2,2-trifluoroethoxy)phenyl]-2-[4-(1,1,1,3,3,3-hexafluoro-2-hydroxypropan-2-yl)phenyl]-2,3-dihydro-1H-pyrrolo[3,4-c]pyridin-1-one], the inhibition at 10 µM was 99%.
Regarding `N#CC1(c2ccc(N3Cc4c(ccnc4-c4ccccc4OCC(F)(F)F)C3=O)cc2)CC1` [Example 271, 1-(4-{1-oxo-4-[2-(2,2,2-trifluoroethoxy)phenyl]-1,3-dihydro-2H-pyrrolo[3,4-c]pyridin-2-yl}phenyl)cyclopropane-1-carbonitrile], the inhibition at 10 µM is 100%.
Consider `CC(C)(O)c1ccc(N2Cc3c(ccnc3-c3ccncc3OCC(F)(F)F)C2=O)cc1F` [Example 272, 2-[3-fluoro-4-(2-hydroxypropan-2-yl)phenyl]-4-[3-(2,2,2-trifluoroethoxy)pyridin-4-yl]-2,3-dihydro-1H-pyrrolo[3,4-c]pyridin-1-one], for which the inhibition at 10 µM was determined as 96%.
Regarding `CC(C)(O)c1ccc(N2Cc3c(ccnc3-c3ccccc3OCC(F)(F)F)C2=O)nc1` [Example 273, 2-[5-(2-hydroxypropan-2-yl)pyridin-2-yl]-4-[2-(2,2,2-trifluoroethoxy)phenyl]-2,3-dihydro-1H-pyrrolo [3,4-c]pyridin-1-one], the inhibition at 10 µM stood at 100%.
